Source: ChEMBL document CHEMBL3867426, “Synthesis and biological evaluation of 6-fluoro-3-phenyl-7-piperazinyl quinolone derivatives as potential topoisomerase I inhibitors” (Eur J Med Chem, 2016)
Activity calls are given as the source filed them. The rule behind the calls is not given here.

How the values were obtained:
[1] = Cell cycle arrest in human A549 cells assessed as accumulation at G2 phase at 0.5 uM after 24 hrs by propidium iodide staining based flow cytometric analysis (reference value: 22.51%); type: functional
[2] = Cell cycle arrest in human A549 cells assessed as accumulation at S phase at 0.5 uM after 24 hrs by propidium iodide staining based flow cytometric analysis (reference value: 26.40%); type: functional
[3] = cells; settings: Homo sapiens, A549, 48 h
[4] = Antiproliferative activity against human BGC823 cells after 48 hrs by MTT assay; type: functional, cell-based; settings: BGC-823, 48 h
[5] = cells; settings: Homo sapiens, HepG2, 48 h
[6] = cells; settings: Homo sapiens, HeLa, 48 h
[7] = Cell cycle arrest in human A549 cells assessed as accumulation at G1 phase at 0.5 uM after 24 hrs by propidium iodide staining based flow cytometric analysis (reference value: 46.14%); type: functional
[8] = Antitumor activity against human A549 cells xenografted in BALB/c nude mouse assessed as reduction in tumor volume at 20 mg/kg, iv administered once every 3 days measured on day 21 post dose; type: functional
[9] = Antitumor activity against human A549 cells xenografted in BALB/c nude mouse assessed as reduction in tumor volume at 20 mg/kg, iv administered once every 3 days measured on day 23 post dose; type: functional
[10] = Antitumor activity against human A549 cells xenografted in BALB/c nude mouse assessed as reduction in tumor volume at 20 mg/kg, iv administered once every 3 days measured on day 12 post dose; type: functional
[11] = Antitumor activity against human A549 cells xenografted in BALB/c nude mouse assessed as reduction in tumor volume at 20 mg/kg, iv administered once every 3 days measured on day 18 post dose; type: functional
[12] = test system: Mus musculus; test: Toxicity in BALB/c nude mouse xenografted with human A549 cells assessed as mortality at 20 mg/kg, iv administered once every 3 days for 23 days; type: organism-based; settings: in vivo
[13] = Antitumor activity against human A549 cells xenografted in BALB/c nude mouse assessed as reduction in tumor volume at 20 mg/kg, iv administered once every 3 days measured on day 3 post dose; type: functional
[14] = molecular target: T1, DNA topoisomerase 1 (Homo sapiens) (UniProt P11387); test: Inhibition of DNA topoisomerase 1 (unknown origin)-mediated relaxation of supercoiled pBR322 plasmid DNA at 100 uM after 30 mins by agarose gel electrophoresis
T1 sequence (whole entry): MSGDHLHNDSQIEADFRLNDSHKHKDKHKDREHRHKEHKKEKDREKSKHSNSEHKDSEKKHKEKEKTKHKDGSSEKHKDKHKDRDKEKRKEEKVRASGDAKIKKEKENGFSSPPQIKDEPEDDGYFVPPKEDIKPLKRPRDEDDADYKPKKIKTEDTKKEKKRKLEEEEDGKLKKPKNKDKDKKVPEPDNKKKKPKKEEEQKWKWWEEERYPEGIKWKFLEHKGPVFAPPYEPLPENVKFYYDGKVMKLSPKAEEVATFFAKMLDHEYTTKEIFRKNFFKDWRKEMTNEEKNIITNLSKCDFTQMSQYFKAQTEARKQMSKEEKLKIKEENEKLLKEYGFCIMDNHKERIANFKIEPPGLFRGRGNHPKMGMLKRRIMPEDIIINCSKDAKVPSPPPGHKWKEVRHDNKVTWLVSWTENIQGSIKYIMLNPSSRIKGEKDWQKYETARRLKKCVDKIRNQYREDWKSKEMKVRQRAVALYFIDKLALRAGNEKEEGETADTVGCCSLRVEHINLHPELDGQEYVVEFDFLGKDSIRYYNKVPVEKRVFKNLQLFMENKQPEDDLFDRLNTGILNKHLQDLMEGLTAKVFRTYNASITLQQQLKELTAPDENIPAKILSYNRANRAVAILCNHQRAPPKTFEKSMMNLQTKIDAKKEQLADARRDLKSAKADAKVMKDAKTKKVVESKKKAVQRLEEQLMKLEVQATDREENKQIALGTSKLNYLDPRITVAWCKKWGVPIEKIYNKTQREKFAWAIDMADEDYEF

[15] = Antitumor activity against human A549 cells xenografted in BALB/c nude mouse assessed as reduction in tumor volume at 20 mg/kg, iv administered once every 3 days measured on day 15 post dose; type: functional
[16] = Antitumor activity against human A549 cells xenografted in BALB/c nude mouse assessed as reduction in tumor volume at 20 mg/kg, iv administered once every 3 days measured on day 6 post dose; type: functional
[17] = Antitumor activity against human A549 cells xenografted in BALB/c nude mouse assessed as reduction in tumor volume at 20 mg/kg, iv administered once every 3 days measured on day 9 post dose; type: functional
[18] = Solubility of the compound in Tris/glycine/SDS buffer at pH 7.9; type: physicochemical
[19] = Antitumor activity against human A549 cells xenografted in BALB/c nude mouse assessed as tumor growth inhibition at 20 mg/kg, iv administered once every 3 days for 23 days relative to control; type: functional; settings: read-out: TGI
[20] = test system: Mus musculus; test: Toxicity in BALB/c nude mouse xenografted with human A549 cells assessed as change in body weight at 20 mg/kg, iv administered once every 3 days for 23 days measured twice per week during compound dosing; type: organism-based; settings: in vivo
[21] = Solubility of the compound in pH 7.9 Tris/glycine/SDS buffer at 50 uM; type: physicochemical; settings: pH 7.9, 50 µM

SMILES | IC50 [3] [µM] | IC50 [4] [µM] | IC50 [5] [µM] | IC50 [6] [µM] | inhibition [14] | solubility [18] [µM] | further results
CC[C@@]1(O)C(=O)OCc2c1cc1n(c2=O)Cc2cc3ccccc3nc2-1 [CAMPTOTHECIN] | 0.46 | 1.27 | 1.52 | 1.41 |  |  | Activity [1]: 11.3%; Activity [2]: 48.1%; Activity [7]: 33.2%
CCn1cc(-c2ccc(Cl)cc2)c(=O)c2cc(F)c(N3CCNCC3)cc21 | 1.25 | 14.6 | 24 | 15.4 |  |  | 
O=c1c(-c2cccc(Cl)c2)cn(C2CC2)c2cc(N3CCNCC3)c(F)cc12 | 0.11 | 0.61 | 0.86 | 0.89 | Active | > 400 | T/C [8]: 73.07%; T/C [9]: 74.32%; T/C [10]: 58.03%; Activity [1]: 17.7%; Activity [2]: 31.2%; T/C [11]: 62.96%; Activity [12]: Non-Toxic; T/C [13]: 87.18%; T/C [15]: 76.4%; T/C [16]: 95.42%; T/C [17]: 85.54%; inhibition in vivo at 20 mg/kg [19]: 29.2%; Activity [20]: Non-Toxic; Activity [7]: 44%
O=c1c(-c2ccc(Cl)cc2)cn(C2CC2)c2cc(N3CCNCC3)c(F)cc12 | 0.65 | 12.9 | 8.02 | 9.3 | Active | > 400 | 
CC[C@@]1(O)C(=O)OCc2c1cc1n(c2=O)Cc2cc3cc(O)ccc3nc2-1 [HYDROXYCAMPTOTHECIN] |  |  |  |  |  |  | T/C [8]: 20%; T/C [9]: 21.68%; T/C [10]: 29.44%; T/C [11]: 23.92%; Activity [12]: Toxic; T/C [13]: 91.99%; T/C [15]: 27.97%; T/C [16]: 68.37%; T/C [17]: 54.55%; Activity [20]: Toxic
CCn1cc(-c2ccc(F)cc2)c(=O)c2cc(F)c(N3CCNCC3)cc21 | 11.4 | 69.6 | 56.2 | 60.9 |  |  | 
CCn1cc(-c2ccc(C#N)cc2)c(=O)c2cc(F)c(N3CCNCC3)cc21 | 1.09 | 18.7 | 12.6 | 14.6 |  |  | 
O=c1c(-c2ccccc2)cn(C2CC2)c2cc(N3CCNCC3)c(F)cc12 | 0.5 | 7.86 | 8.65 | 9.99 | Active | > 400 | 
O=c1c(-c2ccc(F)cc2)cn(C2CC2)c2cc(N3CCNCC3)c(F)cc12 | 1.68 | 15.1 | 10.6 | 14.9 | Active | > 400 | 
CCn1cc(-c2ccc(OC)cc2)c(=O)c2cc(F)c(N3CCNCC3)cc21 | 11.6 | 46.1 | 57.9 | 69 |  |  | 
CCn1cc(-c2cccc(F)c2)c(=O)c2cc(F)c(N3CCNCC3)cc21 | 3.06 | 27.3 | 27.8 | 21.9 |  |  | 
CN1CCN(c2cc3c(cc2F)c(=O)c(-c2cccc(Cl)c2)cn3C2CC2)CC1 | 1.34 | 20.2 | 26.5 | 15.8 |  |  | 
O=c1c(-c2cccc(F)c2)cn(C2CC2)c2cc(N3CCNCC3)c(F)cc12 | 1.1 | 12 | 7.38 | 9.16 | Active | > 400 | 
CCn1cc(-c2cccc(OC)c2)c(=O)c2cc(F)c(N3CCNCC3)cc21 | 0.8 | 14.7 | 13 | 12.2 |  |  | 
CCn1cc(-c2ccccc2)c(=O)c2cc(F)c(N3CCNCC3)cc21 | 10.8 | 75.4 | 30.1 | 35.1 |  |  | 
COc1cccc(-c2cn(C3CC3)c3cc(N4CCNCC4)c(F)cc3c2=O)c1 | 0.12 | 0.69 | 0.91 | 0.92 | Active | > 400 | T/C [8]: 71.52%; T/C [9]: 64.72%; T/C [10]: 85.88%; Activity [1]: 11.8%; Activity [2]: 32.2%; T/C [11]: 68.69%; Activity [12]: Non-Toxic; T/C [13]: 140.57%; T/C [15]: 73.12%; T/C [16]: 114.41%; T/C [17]: 118.67%; inhibition in vivo at 20 mg/kg [19]: 42.8%; Activity [20]: Non-Toxic; Activity [7]: 48.2%
COc1ccc(-c2cn(C3CC3)c3cc(N4CCNCC4)c(F)cc3c2=O)cc1 | 1.87 | 18.9 | 20.8 | 16.5 | Active | > 400 | 
COc1cccc(-c2cn(C3CC3)c3cc(N4CCN(C)CC4)c(F)cc3c2=O)c1 | 1.12 | 20.9 | 25.4 | 14.8 |  |  | 
CCn1cc(-c2cccc(Cl)c2)c(=O)c2cc(F)c(N3CCNCC3)cc21 | 0.78 | 18.4 | 15.3 | 16.1 |  |  | 
CCn1cc(-c2nc3ccc([N+](=O)[O-])cc3o2)c(=O)c2cc(F)c(N3CCNC(C)C3)c(F)c21 (configuration not stated) | 1.47 | 2.74 | 2.65 | 2.98 |  |  | solubility [21]: Insoluble
